This note sets out measurements from BindingDB's records for doi:10.1021/jm030603w (Purdue Pharma, 2005).

Common to all, as to experiment: PDE Activity Assay
The target of assay [1] is cAMP-specific 3',5'-cyclic phosphodiesterase 4A (Homo sapiens, UniProt P27815). The settings on record: pH 8; 22 °C.
The target in assay [2] is cAMP-specific 3',5'-cyclic phosphodiesterase 4B (Homo sapiens, UniProt Q07343).
Assay [3] addresses cAMP-specific 3',5'-cyclic phosphodiesterase 4D (Homo sapiens, UniProt Q08499).

Several values for one entry are separate records, joined by “and”; a condition that tells them apart may be missing. Identical values can stand only once. Counter-ions that a name gives are not always drawn.

Chain of cAMP-specific 3',5'-cyclic phosphodiesterase 4A (P27815 whole entry): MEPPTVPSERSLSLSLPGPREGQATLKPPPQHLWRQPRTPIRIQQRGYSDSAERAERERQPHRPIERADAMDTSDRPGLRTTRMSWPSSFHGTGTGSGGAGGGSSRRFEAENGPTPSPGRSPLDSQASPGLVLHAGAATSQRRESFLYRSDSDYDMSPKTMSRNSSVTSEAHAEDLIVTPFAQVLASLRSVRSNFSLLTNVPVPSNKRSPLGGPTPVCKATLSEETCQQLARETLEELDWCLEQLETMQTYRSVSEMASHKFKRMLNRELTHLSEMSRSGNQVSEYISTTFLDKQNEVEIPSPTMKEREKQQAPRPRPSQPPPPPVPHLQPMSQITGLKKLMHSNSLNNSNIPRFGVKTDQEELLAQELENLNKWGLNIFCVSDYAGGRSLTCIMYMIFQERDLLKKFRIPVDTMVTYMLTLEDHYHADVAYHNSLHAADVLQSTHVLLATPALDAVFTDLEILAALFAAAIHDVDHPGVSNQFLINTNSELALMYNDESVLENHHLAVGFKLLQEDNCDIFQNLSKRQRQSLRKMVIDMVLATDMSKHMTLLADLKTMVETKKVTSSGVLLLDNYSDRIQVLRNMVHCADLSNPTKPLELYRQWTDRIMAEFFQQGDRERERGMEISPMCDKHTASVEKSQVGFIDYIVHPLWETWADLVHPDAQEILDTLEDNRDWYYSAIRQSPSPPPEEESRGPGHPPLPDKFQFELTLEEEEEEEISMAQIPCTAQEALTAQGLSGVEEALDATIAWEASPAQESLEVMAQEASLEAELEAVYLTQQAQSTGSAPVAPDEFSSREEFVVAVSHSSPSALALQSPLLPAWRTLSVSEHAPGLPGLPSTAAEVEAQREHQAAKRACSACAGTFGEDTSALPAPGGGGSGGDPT
Chain of cAMP-specific 3',5'-cyclic phosphodiesterase 4B (Q07343 whole entry): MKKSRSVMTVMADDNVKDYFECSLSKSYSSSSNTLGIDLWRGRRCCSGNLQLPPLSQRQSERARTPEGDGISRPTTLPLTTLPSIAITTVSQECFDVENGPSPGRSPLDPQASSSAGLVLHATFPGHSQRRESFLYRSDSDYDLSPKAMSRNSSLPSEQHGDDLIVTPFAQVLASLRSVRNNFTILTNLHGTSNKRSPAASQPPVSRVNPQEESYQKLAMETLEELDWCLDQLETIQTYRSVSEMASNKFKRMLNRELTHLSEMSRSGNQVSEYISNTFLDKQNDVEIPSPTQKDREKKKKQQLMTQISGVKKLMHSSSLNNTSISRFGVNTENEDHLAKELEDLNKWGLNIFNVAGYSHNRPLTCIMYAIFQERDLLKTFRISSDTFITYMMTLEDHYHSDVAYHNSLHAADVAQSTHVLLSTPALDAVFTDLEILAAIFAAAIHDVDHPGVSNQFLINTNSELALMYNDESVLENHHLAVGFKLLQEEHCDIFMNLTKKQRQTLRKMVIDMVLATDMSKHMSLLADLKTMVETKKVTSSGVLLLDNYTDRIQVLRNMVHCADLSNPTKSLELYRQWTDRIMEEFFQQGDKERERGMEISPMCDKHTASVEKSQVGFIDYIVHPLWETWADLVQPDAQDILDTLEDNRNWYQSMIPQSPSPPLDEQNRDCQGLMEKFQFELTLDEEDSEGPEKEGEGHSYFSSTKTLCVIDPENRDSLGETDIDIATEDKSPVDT
Chain of cAMP-specific 3',5'-cyclic phosphodiesterase 4D (Q08499 whole entry): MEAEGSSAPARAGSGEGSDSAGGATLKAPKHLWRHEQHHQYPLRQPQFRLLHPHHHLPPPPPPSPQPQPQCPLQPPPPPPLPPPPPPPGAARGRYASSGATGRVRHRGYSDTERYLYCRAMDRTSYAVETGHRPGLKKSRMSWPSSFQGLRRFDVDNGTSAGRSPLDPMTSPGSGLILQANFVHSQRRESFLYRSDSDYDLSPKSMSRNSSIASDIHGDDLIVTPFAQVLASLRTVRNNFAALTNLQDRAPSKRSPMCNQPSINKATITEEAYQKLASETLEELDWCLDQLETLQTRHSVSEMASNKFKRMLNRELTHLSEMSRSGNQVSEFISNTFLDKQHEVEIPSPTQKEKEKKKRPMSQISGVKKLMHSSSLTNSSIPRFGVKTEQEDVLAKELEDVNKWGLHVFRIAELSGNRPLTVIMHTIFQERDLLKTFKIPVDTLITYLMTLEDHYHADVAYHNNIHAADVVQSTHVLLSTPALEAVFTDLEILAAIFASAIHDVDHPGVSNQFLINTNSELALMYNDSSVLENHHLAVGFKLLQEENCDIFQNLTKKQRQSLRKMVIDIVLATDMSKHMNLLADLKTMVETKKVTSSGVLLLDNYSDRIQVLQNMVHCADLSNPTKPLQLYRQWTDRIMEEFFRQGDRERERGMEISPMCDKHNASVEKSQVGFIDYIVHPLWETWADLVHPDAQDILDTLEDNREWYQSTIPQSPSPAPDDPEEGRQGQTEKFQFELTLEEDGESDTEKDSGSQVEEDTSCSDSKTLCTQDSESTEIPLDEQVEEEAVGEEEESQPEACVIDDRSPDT

Consider `COc1ccc(Cn2cnc(N)c3nc(C(C)(C)OCc4ccc(Cl)c(Cl)c4)nc2-3)cc1OC1CCCC1` [3-{[3-(cyclopentyloxy)-4-methoxyphenyl]methyl}-8-{2-[(3,4-dichlorophenyl)methoxy]propan-2-yl}-3H-purin-6-amine], for which the Ki was 0.166 µM in assay [1] and 0.0097 µM in assay [2].
As to `COc1ccc(Cn2cnc(N)c3nc(C(C)OCc4ccccc4)nc2-3)cc1OC1CCCC1` (stereo not given) [8-[1-(benzyloxy)ethyl]-3-{[3-(cyclopentyloxy)-4-methoxyphenyl]methyl}-3H-purin-6-amine], the Ki in assay [1] is 15.2 µM; in assay [2], 0.533 µM; in assay [3], 4.45 µM and 0.64 µM and 0.59 µM.
For the molecule `COc1ccc(Cn2cnc(N)c3nc(C(C)(C)OCc4ccc(OC(F)(F)F)cc4)nc2-3)cc1OC1CCCC1` [3-{[3-(cyclopentyloxy)-4-methoxyphenyl]methyl}-8-(2-{[4-(trifluoromethoxy)phenyl]methoxy}propan-2-yl)-3H-purin-6-amine], the results for the Ki in assay [1] and in assay [2] were 0.415 µM and 0.0266 µM, respectively.
The matching figures for `COc1ccc(COC(C)(C)c2nc3c(N)ncn(Cc4ccc(OC)c(OC5CCCC5)c4)c-3n2)cc1OC` [3-(3-Cyclopentyloxy-4-methoxy-benzyl)-8-[1-(3,4-dimethoxy-benzyloxy)-1-methyl-ethyl]-3Hpurin-6-ylamine Fumarate]: 0.405 µM and 0.0428 µM.
The matching figures for `COc1ccc(Cn2cnc(N)c3nc(C(C)(C)OCc4ccc(Cl)cc4)nc2-3)cc1OC1CCCC1` [8-{1-[(4-Chlorobenzyl)oxy]-1-methyl-ethyl}-3-[3-cyclopentyloxy)-4-methoxybenzyl]-3H-purin-6-amine]: 0.126 µM and 0.011 µM.
The like results for `COc1ccc(COC(C)c2nc3c(N)ncn(Cc4ccc(OC)c(OC5CCCC5)c4)c-3n2)cc1` (stereo not given) [3-(3-Cyclopentyloxy-4-methoxy-benzyl)-8-[1-(4-methoxy-benzyloxy)-ethyl]-3H-purin-6-ylamine] were, in that order, 5.2 µM and 0.43 µM.
As for `COc1ccc(Cn2cnc(N)c3nc(C(C)(C)OCc4ccccc4F)nc2-3)cc1OC1CCCC1` [3-{[3-(cyclopentyloxy)-4-methoxyphenyl]methyl}-8-{2-[(2-fluorophenyl)methoxy]propan-2-yl}-3H-purin-6-amine], the values for the Ki in assay [1] and in assay [2] were 0.271 µM and 0.0189 µM, respectively.
The matching figures for `COc1ccc(Cn2cnc(N)c3nc(C(C)(C)COc4cccs4)nc2-3)cc1OC1CCCC1` [3-{[3-(cyclopentyloxy)-4-methoxyphenyl]methyl}-8-[2-methyl-1-(thiophen-2-yloxy)propan-2-yl]-3H-purin-6-amine]: 0.236 µM and 0.0469 µM.
The like results for `COc1ccc(Cn2cnc(N)c3nc(C(C)(C)OCc4ccc(C(F)(F)F)cc4)nc2-3)cc1OC1CCCC1` [3-{[3-(cyclopentyloxy)-4-methoxyphenyl]methyl}-8-(2-{[4-(trifluoromethyl)phenyl]methoxy}propan-2-yl)-3H-purin-6-amine] were, in that order, 0.309 µM and 0.033 µM.
The like results for `COc1ccc(Cn2cnc(N)c3nc(C(C)OCc4ccc(F)cc4)nc2-3)cc1OC1CCCC1` (stereo not given) [3-{[3-(cyclopentyloxy)-4-methoxyphenyl]methyl}-8-{1-[(4-fluorophenyl)methoxy]ethyl}-3H-purin-6-amine] were, in that order, 3.39 µM and 0.269 µM.
With `COc1ccc(Cn2cnc(N)c3nc(C(C)(C)OCc4ccc5c(c4)OCO5)nc2-3)cc1OC1CCCC1` [3-(3-Cyclopentyloxy-4-methoxy-benzyl)-8-[1-(3,4-methylenedioxy-benzyloxy)-1-methyl-ethyl]-3Hpurin-6-ylamine], the Ki in assay [1] is 0.147 µM; in assay [2] it was 0.0214 µM.
The matching figures for `COc1ccc(Cn2cnc(N)c3nc(C(C)(C)OCc4ccc(F)c(F)c4)nc2-3)cc1OC1CCCC1` [3-(3-Cyclopentyloxy-4-methoxy-benzyl)-8-[1-(3,4-difluoro-benzyloxy)-1-methyl-ethyl]-3Hpurin-6-ylamine Fumarate]: 0.244 µM and 0.0173 µM.
The like results for `COc1ccc(Cn2cnc(N)c3nc(C(C)(C)OCc4ccccc4)nc2-3)cc1OC1CCCC1` [8-[2-(benzyloxy)propan-2-yl]-3-{[3-(cyclopentyloxy)-4-methoxyphenyl]methyl}-3H-purin-6-amine hydrochloride] were, in that order, 0.179 µM and 0.0089 µM.
As to `COc1ccc(Cn2cnc(N)c3nc(C(C)(C)OCc4cccc(F)c4)nc2-3)cc1OC1CCCC1` [3-(3-Cyclopentyloxy-4-methoxy-benzyl)-8-[1-(3-fluoro-benzyloxy)-1-methyl-ethyl]-3H-purin-6-ylamine], the values for the Ki in assay [1] and in assay [2] were 0.208 µM and 0.0116 µM, respectively.
The like results for `COc1ccc(Cn2cnc(N)c3nc(C(C)(C)OCc4ccc(C(C)(C)C)cc4)nc2-3)cc1OC1CCCC1` [3-(3-Cyclopentyloxy-4-methoxy-benzyl)-8-[1-(4-tert-butyl-benzyloxy)-1-methyl-ethyl]-3Hpurin-6-ylamine] were, in that order, 0.175 µM and 0.0058 µM.
On to `COc1ccc(Cn2cnc(N)c3nc(C(C)(C)OCc4ccc(C)cc4)nc2-3)cc1OC1CCCC1` [3-(3-Cyclopentyloxy-4-methoxy-benzyl)-8-[1-(4-methyl-benzyloxy)-1-methyl-ethyl]-3H-purin-6-ylamine], for which the values for the Ki in assay [1] and in assay [2] were 0.206 µM and 0.0098 µM, respectively.
The matching figures for `COc1ccc(Cn2cnc(N)c3nc(C(C)(C)OCc4ccc(C#N)cc4)nc2-3)cc1OC1CCCC1` [3-(3-Cyclopentyloxy-4-methoxy-benzyl)-8-[1-(4-cyano-benzyloxy)-1-methyl-ethyl]-3Hpurin-6-ylamine]: 1.19 µM and 0.0713 µM.
The like results for `COc1cc(COC(C)(C)c2nc3c(N)ncn(Cc4ccc(OC)c(OC5CCCC5)c4)c-3n2)cc(OC)c1` [(2E)-but-2-enedioic acid; 3-{[3-(cyclopentyloxy)-4-methoxyphenyl]methyl}-8-{2-[(3,5-dimethoxyphenyl)methoxy]propan-2-yl}-3H-purin-6-amine] were, in that order, 0.225 µM and 0.0219 µM.
The matching figures for `COc1ccccc1COC(C)(C)c1nc2c(N)ncn(Cc3ccc(OC)c(OC4CCCC4)c3)c-2n1` [3-(3-Cyclopentyloxy-4-methoxy-benzyl)-8-[1-(2-methoxy-benzyloxy)-1-methyl-ethyl]-3H-purine-6-ylamine]: 0.137 µM and 0.011 µM.
Take `COc1ccc(COC(C)(C)c2nc3c(N)ncn(Cc4ccc(OC)c(OC5CCCC5)c4)c-3n2)cc1` [3-{[3-(cyclopentyloxy)-4-methoxyphenyl]methyl}-8-{2-[(4-methoxyphenyl)methoxy]propan-2-yl}-3H-purin-6-amine]: the Ki in assay [1] was found to be 0.113 µM; in assay [2], 0.0103 µM.
The like results for `COc1cccc(COC(C)(C)c2nc3c(N)ncn(Cc4ccc(OC)c(OC5CCCC5)c4)c-3n2)c1` [3-{[3-(cyclopentyloxy)-4-methoxyphenyl]methyl}-8-{2-[(3-methoxyphenyl)methoxy]propan-2-yl}-3H-purin-6-amine] were, in that order, 0.175 µM and 0.013 µM.
The like results for `COc1ccc(Cn2cnc(N)c3nc(C(C)(C)COc4ccsc4)nc2-3)cc1OC1CCCC1` [3-{[3-(cyclopentyloxy)-4-methoxyphenyl]methyl}-8-[2-methyl-1-(thiophen-3-yloxy)propan-2-yl]-3H-purin-6-amine] were, in that order, 0.223 µM and 0.0095 µM.
